Measurements as given in patent publication US8618074B2, “GPCR enhanced neuroprotection to treat brain injury” (Board of Regents of the University of Texas System, priority 2007, dated 2013).

Tests used:
astrocytes [1] = experiment: Mitochondrial membrane potential ΔΨ estimated as log(Fmito/Fcyto) with TMRE; type: cell-based, mouse; settings: treating astrocytes for 10 minutes
Method: Mitochondrial membrane potentials (ΔΨs) was measured as previously described using the potential sensitive dye tetra-methyl rhodamine ethyl ester (TMRE, Molecular Probes, #T-669) (Lin and Lechleiter, 2002). Images were acquired with a 60× oil 1.4 NA objective on a Nikon PCM2000 confocal microscope custom adapted for two-photon imaging. A Ti-sapphire Coherent Mira 900 Laser pumped with a 5W Verdi laser (Coherent Inc., Santa Clara, Calif.) was used to excite TMRE at 800 nm A neutral-density filter wheel was used to attenuate the laser intensity so that no detectable photobleaching of TMRE was observed.
We confirmed this by directly measuring the effect of ATP, ATP plus XeC and IP3-BM treatments on ΔΨ. Cultured cells were labeled with TMRE (200 nM) and imaged with a two-photon microscope as described above. ΔΨ was estimated as the log (Fmito/Fcyto) where Fmito is the peak fluorescent intensity observed in single mitochondria (Farkas et al., 1989; Lin et al., 2005). The mean values of individual mitochondria from a single cell were used for the mitochondrial potential estimate. Fcyto represents the lowest value of TMRE fluorescence observed within the boundaries of the same cell. […] FIG. 5E depicts a histogram plot showing average mitochondrial membrane potentials before and after treatment. The mean resting ΔΨs for untreated (Buffer), ATP-treated, ATP plus XeC-treated and IP3-BM-treated were 1.84+0.01 (n=78 mitochondria, pooled from 2 experiments), 1.84+0.01 (n=85 mitochondria), 1.85+0.01 (n=80 mitochondria) and 1.86+0.01 (n=48 mitochondria), respectively. Astrocyte cultures were then exposed to their respective treatments and the same fields of mitochondria were imaged 10 minutes later.

astrocytes [2] = experiment: Astrocyte survival under t-buOOH oxidative stress in the absence of neurons; type: cell-based, mouse
Method: To determine whether P2Y-R enhanced mitochondrial metabolism in astrocytes affected neuronal resistance to oxidative stress, we prepared co-cultures of neurons and astrocytes using corning transwell-clear permeable supports, which physically separates the two cell-types by ˜1 mm (# 07-200-170, Fisher scientific). Primary cultures of astrocytes were directly prepared in transwell supports until they were ˜70% confluent. Mouse cortical neurons were then cultured onto glass bottom mattek plates and maintained in B-27/Neurobasal Medium to control glia contamination to less than 0.5% (Invitrogen). After four days, co-cultures were treated with t-buOOH (100 μM) for 4 hours with and without pre-stimulation of ATP (2 μM, 10 minutes). Cells were then stained with the DNA intercalating dye Hoechst 33342 (10 μg/ml, Molecular Probes, #H-3570) and calcein AM (2 μM, Molecular Probes, #C3100). […] We then tested the neuroprotective affects of isoform specific purinergic ligands 2-MeSADP(P2Y1-R) and UTP(P2Y2-R). FIG. 6A depicts histogram plots of the percentage of neurons alive when cocultured with young or old astrocytes. FIG. 6B depicts histogram plots of the percentage of neurons alive pretreated with either 2-MeSADP (2 μM) or UTP (50 μM) for 10 min. A ten-minute pre-treatment of astrocytes with either 2-MeSADP (2 μM), or UTP (50 μM) was equally protective against oxidative stress induced cell death. The % neurons alive after 4.5 hours of t-buOOH treatment was 51±4% (n=1664 neurons, pooled from 4 experiments) for untreated controls, 70±2% (n=2541 neurons, pooled from 4 experiments) for 2-MeSADP and 71±3% (n=1189 neurons, pooled from 4 experiments) for UTP treated co-cultures. […] The % astrocytes alive after 4.5 hours of t-buOOH treatment, in the absence of neurons, was 60±4% (n=294 cells) for control, 77±4% (n=294) for 2-MeSADP and 79±3% (n=333) for UTP treated astrocytes.
It should be noted that stimulation of neuroprotective response in astrocytes is not restricted to signaling through P2Y receptors. For example we have shown that administration of the membrane permeable IP3 analog, IP3BM, is capable of protecting astrocytes from oxidative damage. Thus, it appears possible that any stimulus capable of evoking IP3-mediated calcium release in astrocytes is equally suitable for application in the present treatment methods. To test this possibility, astrocyte cultures subjected to oxidative stress were treated with either 2-MeSADP, or the metabotropic glutamate receptor agonist (1 S, 3 R)-1-aminocyclopentane-1,3-dicarboxylic acid (ACPD), or were left untreated.
To directly examine the role of IP3 gated Ca^2+ release in P2Y-R enhanced astrocyte protection, we used a membrane permeant butyryloxymethyl ester of IP3 (IP3-BM). Cultures of astrocytes were exposed to IP3-BM and Ca^2+ levels were assessed using 2-photon imaging of Fura 2. Ca^2+ increases in response to IP3-BM application were easily detected, but they occurred over a much slower time course than those initiated by ATP treatment. This was not unexpected because of the slow process of IP3-BM movement across the lipid bilayer as well as the time needed to cleave the ester and accumulate IP3 in the cell. Because of the slower time course, we pretreated astrocytes for 20 minutes prior to exposing them to the oxidant stress t-BuOOH. […] The protective effect of IP3-BM treatment was blocked by the IP3R inhibitor, XeC. […]

astrocytes [3] = experiment: Single cell astrocyte edema (swelling) after RB-induced photothrombotic event; type: in vivo, mouse; settings: tail-vein injection
Excerpt: A critical role for mitochondrial metabolism is also supported by new data obtained from a transgenic mouse model expressing a mitochondrial targeted DNA restriction enzyme, EcoR1, under the control of doxycycline (tTA/mtEcoR1, courtesy of Dr. Chris Walters, UTHSCSA). […] In addition to optically imaging multiple physiological parameters in single cells (e.g. mitochondrial membrane potentials and Ca2+ levels in real time), we have successfully imaged single cells edema formation in response to a Rose Bengal (RB)-induced photothrombotic event in a single blood vessel. Our preliminary measurements indicate that astrocyte volume increases over 6-fold during edema formation.

Row | Structure (SMILES) | ΔΨ (log Fmito/Fcyto) after treatment (astrocytes [1]) | % astrocytes alive (astrocytes [2]; absence of neurons, 4.5 hours of t-buOOH, 2-MeSADP or UTP) | astrocyte resistance to oxidative stress (astrocytes [2]; astrocyte cultures subjected to oxidative stress, versus untreated) | astrocyte swelling (edema) (astrocytes [3]) | time to apparently complete reversal of astrocyte swelling after the initial clot (astrocytes [3])
1 | Nc1ncnc2c1ncn2[C@@H]1O[C@H](COP(=O)(O)OP(=O)(O)OP(=O)(O)O)[C@@H](O)[C@H]1O [ATP] | 1.98±0.01 | – | – | – | –
2 | CSc1nc(N)c2ncn([C@@H]3O[C@H](COP(=O)(O)OP(=O)(O)O)[C@@H](O)[C@H]3O)c2n1 [2-MeSADP] | – | 77±4% | enhanced | significantly reduced swelling | ≤ 8 h
